From US20250241884A1, “Pharmaceutical Compositions of D10-Docosahexaenoic Acid or Esters Thereof” (BioJiva LLC, priority 2022, published 2025)
Entries after “also recorded” stand apart in the source; their conditions may differ. Each block holds one compound with its values, some of them ahead of it.

Legend:
[1] = tested on: adult male wild-type C57BL/6J mice; assay: Protection against geographic atrophy after intravitreal ferric ammonium citrate in mice fed D-DHA; format: in vivo; conditions: for protection against geographic atrophy: intravitreal ferric ammonium citrate
Text: In this example, two cohorts of adult male wild-type C57BL/6J mice (Jackson Labs) were used. Both cohorts were fed identical feed containing 0.25% or 0.5% D-DHA or matching amounts of DHA as controls. After 4 weeks, the mice were given an intravitreal injection of 1 microliter of 0.5 millimolar ferric ammonium citrate diluted in 0.9% saline (test) or 1 microliter of 0.9% saline (control). Mice were then continued on their respective diets for 4 weeks after injection in order to evaluate whether D-DHA could protect against geographic atrophy which is related to AMD.

[2] = tested on: geographic atrophy; assay: Proposed evaluation of geographic atrophy progression in patients versus placebo (safflower oil); format: in vivo, human
Description: Based on the above experiment, the following provides a proposed evaluation in reduction in the rate of macular degeneration progression in a cohort of patients treated with deuterated docosahexaenoic acid ethyl ester, as compared to a cohort of test patients treated with placebo. Specifically, the treated cohort is administered 250 mg/day of deuterated docosahexaenoic acid ethyl ester or 250 mg/day of safflower oil. The patients are maintained on this dosing regimen throughout the clinical study. Periodic measurements of further geographic atrophy development are obtained.
Dosing is continued for 6 or 12, or 18 or 24 months. At that time, the average extent of geographic atrophy progression is measured for each cohort. The efficacy of the treatment protocol is evaluated by comparing the extent of geographic atrophy progression in a treated population against a placebo population. […]

[3] = Predicted steady-state D-DHA substitution and plasma decline without dosing in patients, calculated from Table 2 / FIG. 1; set-up: species or system human; conditions: for D-DHA substitution rate at steady-state (% of total DHA): DHA in human diet 130 mg/day
Text: In contrast to controlled experimental diets, naturally occurring DHA is consumed by patients treated with D-DHA which can dilute the relative percentage of administered D-DHA absorbed with the total DHA pool and its final concentration at steady state in blood and eventually in the target tissue such as retina. The data and standard curves referred to above allow for the determination of retinal steady-state active D-DHA concentrations with reasonable accuracy by calculating the D-DHA/total DHA ratio in plasma and/or red blood cells. Table 4 exemplifies this by using a mean daily dietary intake of about 130 mg of DHA per day (which represents the 90th percentile of the mean usual DHA intake by males >51 years of age in the US.
In each case, the first order kinetics evidence that a dose of 250 mg dose of D-DHA will provide for a steady-state ratio of active D-DHA based on the total DHA concentration present, as set forth in Table 4. Extrapolating backwards from the case in Table 4, a dose of at least 130 mg/day of D-DHA should provide a 1:1 ratio of active D-DHA to DHA. That ratio has been shown above to be therapeutic. And a dose of 250 mg of higher should provide a ratio of 1.9:1 or higher which provides a margin for non-compliance as decribed herein above.
Tables 5, 6, and 7 are based on Table 2 and describe the time it takes for plasma D-DHA levels to fall below 50% or below 20% with 5 different daily doses of D-DHA in (i) patients in the 90th percentile of daily intake consuming up to 130 mg DHA (Table 5), (ii) those in the 95th percentile with a daily intake of up to 180 mg DHA (Table 6), and (iii) an example of a patient consuming more than one meal of oily fish per week with up to 260 mg daily DHA intake.

[4] = Daily D-DHA Dose 250 mg, Background DHA/Day 130 mg (90th percentile, US males)
[5] = Daily D-DHA Dose 250 mg, Background DHA/Day 180 mg (95th percentile, US males)
[6] = Daily D-DHA Dose 250 mg, Background DHA/Day 260 mg (>1 meal of oily fish per week)
[7] = Daily D-DHA Dose 500 mg, Background DHA/Day 130 mg (90th percentile, US males)
[8] = Daily D-DHA Dose 500 mg, Background DHA/Day 180 mg (95th percentile, US males)
[9] = Daily D-DHA Dose 500 mg, Background DHA/Day 260 mg (>1 meal of oily fish per week)
[10] = Daily D-DHA Dose 750 mg, Background DHA/Day 130 mg (90th percentile, US males)
[11] = Daily D-DHA Dose 750 mg, Background DHA/Day 180 mg (95th percentile, US males)
[12] = Daily D-DHA Dose 750 mg, Background DHA/Day 260 mg (>1 meal of oily fish per week)
[13] = Daily D-DHA Dose 1000 mg, Background DHA/Day 130 mg (90th percentile, US males)
[14] = Daily D-DHA Dose 1000 mg, Background DHA/Day 180 mg (95th percentile, US males)
[15] = Daily D-DHA Dose 1000 mg, Background DHA/Day 260 mg (>1 meal of oily fish per week)
[16] = Daily D-DHA Dose 1250 mg, Background DHA/Day 130 mg (90th percentile, US males)
[17] = Daily D-DHA Dose 1250 mg, Background DHA/Day 180 mg (95th percentile, US males)
[18] = Daily D-DHA Dose 1250 mg, Background DHA/Day 260 mg (>1 meal of oily fish per week)

D-DHA Substitution Rate [3, 4]: ~66% | D-DHA/DHA Ratio [3, 4]: 1.92 to 1 | Time to reach 20% in Plasma (0.2:1 D-DHA to DHA Ratio) w/o taking oral D-DHA [3, 4]: ≤ 77 days | Time to reach ≤50% in Plasma (1:1 D-DHA to DHA Ratio) w/o taking oral D-DHA [3, 4]: ≤ 22 days | D-DHA Substitution Rate [3, 5]: ~58% | Days to reach ≤50% in Plasma (1:1 D-DHA to DHA Ratio) w/o taking oral D-DHA [3, 5]: ≤ 11 days | Time to reach 20% in Plasma (0.2:1 D-DHA to DHA Ratio) w/o taking oral D-DHA [3, 5]: ≤ 66 days | D-DHA Substitution Rate [3, 6]: ~49% | Time to reach 20% in Plasma (0.2:1 D-DHA to DHA Ratio) w/o taking oral D-DHA [3, 6]: ≤ 29 days | D-DHA Substitution Rate [3, 7]: ~79% | Time to reach 20% in Plasma (0.2:1 D-DHA to DHA Ratio) w/o taking oral D-DHA [3, 7]: ≤ 46 days | Time to reach ≤50% in Plasma (1:1 D-DHA to DHA Ratio) w/o taking oral D-DHA [3, 7]: ≤ 6 days | D-DHA Substitution Rate [3, 8]: ~74% | Days to reach ≤50% in Plasma (1:1 D-DHA to DHA Ratio) w/o taking oral D-DHA [3, 8]: ≤ 35 days | Time to reach 20% in Plasma (0.2:1 D-DHA to DHA Ratio) w/o taking oral D-DHA [3, 8]: ≤ 90 days | D-DHA Substitution Rate [3, 9]: ~66% | Days to reach ≤50% in Plasma (1:1 D-DHA to DHA Ratio) w/o taking oral D-DHA [3, 9]: ≤ 8 days | Time to reach 20% in Plasma (0.2:1 D-DHA to DHA Ratio) w/o taking oral D-DHA [3, 9]: ≤ 63 days | D-DHA Substitution Rate [3, 10]: ~85% | Time to reach 20% in Plasma (0.2:1 D-DHA to DHA Ratio) w/o taking oral D-DHA [3, 10]: ≤ 101 days | Time to reach ≤50% in Plasma (1:1 D-DHA to DHA Ratio) w/o taking oral D-DHA [3, 10]: ≤ 60 days | D-DHA Substitution Rate [3, 11]: ~81% | Days to reach ≤50% in Plasma (1:1 D-DHA to DHA Ratio) w/o taking oral D-DHA [3, 11]: ≤ 49 days | Time to reach 20% in Plasma (0.2:1 D-DHA to DHA Ratio) w/o taking oral D-DHA [3, 11]: ≤ 104 days | D-DHA Substitution Rate [3, 12]: ~74% | Days to reach ≤50% in Plasma (1:1 D-DHA to DHA Ratio) w/o taking oral D-DHA [3, 12]: ≤ 26 days | Time to reach 20% in Plasma (0.2:1 D-DHA to DHA Ratio) w/o taking oral D-DHA [3, 12]: ≤ 81 days | D-DHA Substitution Rate [3, 13]: ~88% | Time to reach 20% in Plasma (0.2:1 D-DHA to DHA Ratio) w/o taking oral D-DHA [3, 13]: ≤ 125 days | Time to reach ≤50% in Plasma (1:1 D-DHA to DHA Ratio) w/o taking oral D-DHA [3, 13]: ≤ 70 days | D-DHA Substitution Rate [3, 14]: ~85% | Days to reach ≤50% in Plasma (1:1 D-DHA to DHA Ratio) w/o taking oral D-DHA [3, 14]: ≤ 59 days | Time to reach 20% in Plasma (0.2:1 D-DHA to DHA Ratio) w/o taking oral D-DHA [3, 14]: ≤ 114 days | D-DHA Substitution Rate [3, 15]: ~79% | Days to reach ≤50% in Plasma (1:1 D-DHA to DHA Ratio) w/o taking oral D-DHA [3, 15]: ≤ 38 days | Time to reach 20% in Plasma (0.2:1 D-DHA to DHA Ratio) w/o taking oral D-DHA [3, 15]: ≤ 93 days | D-DHA Substitution Rate [3, 16]: ~91% | Time to reach 20% in Plasma (0.2:1 D-DHA to DHA Ratio) w/o taking oral D-DHA [3, 16]: ≤ 132 days | Time to reach ≤50% in Plasma (1:1 D-DHA to DHA Ratio) w/o taking oral D-DHA [3, 16]: ≤ 77 days | D-DHA Substitution Rate [3, 17]: ~87% | Days to reach ≤50% in Plasma (1:1 D-DHA to DHA Ratio) w/o taking oral D-DHA [3, 17]: ≤ 67 days | Time to reach 20% in Plasma (0.2:1 D-DHA to DHA Ratio) w/o taking oral D-DHA [3, 17]: ≤ 121 days | D-DHA Substitution Rate [3, 18]: ~83% | Days to reach ≤50% in Plasma (1:1 D-DHA to DHA Ratio) w/o taking oral D-DHA [3, 18]: ≤ 47 days | Time to reach 20% in Plasma (0.2:1 D-DHA to DHA Ratio) w/o taking oral D-DHA [3, 18]: ≤ 102 days | D-DHA substitution rate at steady-state (% of total DHA) ([3]; Fixed daily D-DHA dose 250 mg): 66% | D-DHA substitution rate at steady-state (% of total DHA) ([3]; Fixed daily D-DHA dose 500 mg): 79% | D-DHA substitution rate at steady-state (% of total DHA) ([3]; Fixed daily D-DHA dose 1000 mg): 88% | time to reach steady state concentrations of active D-DHA after start of therapy ([3]; plasma, patient): about 14 days | time to reach steady state concentrations of active D-DHA after start of therapy ([3]; red blood cell, patient): about 45 days | time to reach steady state concentration of active D-DHA after start of therapy ([3]; skeletal muscle tissue, patient): about 11 weeks
SMILES: [2H]C([2H])(/C=C\CC)/C=C\C([2H])([2H])/C=C\C([2H])([2H])/C=C\C([2H])([2H])/C=C\C([2H])([2H])/C=C\CCC(=O)O [D-DHA, D-10-docosahexaenoic acid]
protection against geographic atrophy ([1]; concentration of D-DHA at least 50% of the total DHA in the retina, feed 0.25% or 0.5% D-DHA): fully protected against geographic atrophy | protection against geographic atrophy ([1]; lower concentrations of D-DHA to DHA (below 50% of total DHA in the retina)): protection was achieved but at reduced rates | protection / reduction in lipid peroxidation ([1]; ratio of about 1:4 of D-DHA to DHA): the protection is accorded; also recorded: sufficient to provide for therapeutic reduction in lipid peroxidation | protection / reduction in lipid peroxidation ([1]; ratio of at least about 1:1 D-DHA to DHA): protect is maximal; also recorded: near maximal results are obtained | percent reduction in geographic atrophy [(F/E)×100] ([2]; individual patient treated with 1,000 mg of D-DHA versus placebo cohort, 6, 12, 18 or 24 months): positive percent reduction in geographic atrophy that is statistically significant

SMILES: [2H]C([2H])(/C=C\CC)/C=C\C([2H])([2H])/C=C\C([2H])([2H])/C=C\C([2H])([2H])/C=C\C([2H])([2H])/C=C\CCC(=O)OCC [deuterated docosahexaenoic acid ethyl ester]
reduction in the rate of disease progression (geographic atrophy progression) ([2]; cohort of patients, 250 mg/day, 6 or 12 or 18 or 24 months, versus placebo (safflower oil)): statistically significant reduction in the rate of disease progression | percent reduction in geographic atrophy area [(C/B)×100] ([2]; cohort of treated patients versus placebo cohort, 6, 12, 18 or 24 months post start of therapy): positive percent reduction in geographic atrophy area that is statistically significant
